Source: patent publication US20190022152A1, “MICROBIOME RESPONSE TO AGENTS” (Yeda Research and Development Co., Ltd., priority 2014, published 2019)
Like-named read-outs stand apart in the source and are kept apart here.

System: fecal microbiota
Settings: fecal samples, 11 weeks consumption
Procedure: Illumina sequence reads were mapped to the human microbiome reference genome database of the Human Microbiome Project [www(dot)hmpdacc(dot)org/HMREFG/^32], and to a gut microbial gene catalogue^33 using GEM mapper^58 with the following parameters: • -m 3 -s 0 -q offset-33 -gem-quality-threshold 26
Microbial species abundance was measured as the fraction of reads that mapped to a single species in the database. An EM algorithm adapted from Pathoscope^59 was employed to determine the correct assignment of reads that mapped to more than one species. We considered only species for which at least 10% of the genome was covered (each coverage bin was 10,000-bp long) in at least one of the growth conditions (saccharin, water, or glucose). Reads mapped to the gut microbial gene catalogue were assigned a KEGG^34,35 ID according to the mapping available with the catalogue. Genes were subsequently mapped to KEGG pathways, and only pathways whose gene coverage was above 0.2 were included.

OC[C@H]1OC(O)[C@H](O)[C@@H](O)[C@@H]1O (stereo partly drawn) [Glucose]
Fold change (week 11/week 0) in relative species abundance (Symbol BACT_9, Number 996): 1.24 | Fold change (week 11/week 0) in relative species abundance (Symbol BACT_49, Number 420): 0.15 | Fold change (week 11/week 0) in relative species abundance (Symbol BACT_60, Number 752): 0.88 | Fold change (week 11/week 0) in relative species abundance (Symbol BACT_65, Number 918): 1.20 | Fold change (week 11/week 0) in relative species abundance (Symbol BACT_70, Number 863): 1.58 | Fold change (week 11/week 0) in relative species abundance (Symbol BACT_85, Number 934): 0.91 | Fold change (week 11/week 0) in relative species abundance (Symbol BACT_170, Number 883): 0.93 | Fold change (week 11/week 0) in relative species abundance (Symbol BACT_171, Number 748): 1.24 | Fold change (week 11/week 0) in relative species abundance (Symbol BACT_178, Number 921): 1.53 | Fold change (week 11/week 0) in relative species abundance (Symbol BACT_181, Number 767): 1.14 | Fold change (week 11/week 0) in relative species abundance (Symbol BACT_185, Number 633): 5.63 | Fold change (week 11/week 0) in relative species abundance (Symbol BACT_189, Number 636): 1.66 | Fold change (week 11/week 0) in relative species abundance (Symbol BACT_192, Number 995): 0.86 | Fold change (week 11/week 0) in relative species abundance (Symbol BACT_195, Number 523): 1.15 | Fold change (week 11/week 0) in relative species abundance (Symbol BACT_225, Number 953): 1.18 | Fold change (week 11/week 0) in relative species abundance (Symbol BACT_258, Number 620): 1.13 | Fold change (week 11/week 0) in relative species abundance (Symbol BACT_260, Number 1443): 0.94 | Fold change (week 11/week 0) in relative species abundance (Symbol BACT_300, Number 769): 1.16 | Fold change (week 11/week 0) in relative species abundance (Symbol BACT_413, Number 847): 1.17 | Fold change (week 11/week 0) in relative species abundance (Symbol BACT_419, Number 920): 0.67 | Fold change (week 11/week 0) in relative species abundance (Symbol BACT_420, Number 922): 0.87 | Fold change (week 11/week 0) in relative species abundance (Symbol BACT_424, Number 906): 1.13 | Fold change (week 11/week 0) in relative species abundance (Symbol BACT_449, Number 772): 1.13 | Fold change (week 11/week 0) in relative species abundance (Symbol BACT_463, Number 719): 1.55 | Fold change (week 11/week 0) in relative species abundance (Symbol BACT_496, Number 765): 0.62 | Fold change (week 11/week 0) in relative species abundance (Symbol BACT_499, Number 35): 0.73 | Fold change (week 11/week 0) in relative species abundance (Symbol BACT_511, Number 591): 1.55 | Fold change (week 11/week 0) in relative species abundance (Symbol BACT_535, Number 940): 0.66 | Fold change (week 11/week 0) in relative species abundance (Symbol BACT_539, Number 117): 0.75 | Fold change (week 11/week 0) in relative species abundance (Symbol BACT_551, Number 907): 0.73 | Fold change (week 11/week 0) in relative species abundance (Symbol BACT_572, Number 963): 0.92 | Fold change (week 11/week 0) in relative species abundance (Symbol BACT_627, Number 886): 0.66 | Fold change (week 11/week 0) in relative species abundance (Symbol BACT_681, Number 125): 1.55 | Fold change (week 11/week 0) in relative species abundance (Symbol BACT_722, Number 377): 1.47 | Fold change (week 11/week 0) in relative species abundance (Symbol BACT_843, Number 1318): 0.69 | Fold change (week 11/week 0) in relative species abundance (Symbol BACT_850, Number 394): 1.86 | Fold change (week 11/week 0) in relative species abundance (Symbol BACT_852, Number 766): 0.88 | Fold change (week 11/week 0) in relative species abundance (Symbol BACT_855, Number 835): 1.23 | Fold change (week 11/week 0) in relative species abundance (Symbol BACT_890, Number 163): 0.74 | Fold change (week 11/week 0) in relative species abundance (Symbol BACT_913, Number 904): 1.17 | Fold change (week 11/week 0) in relative species abundance (Symbol BACT_915, Number 1315): 1.23 | Fold change (week 11/week 0) in relative species abundance (Symbol BACT_1001, Number 933): 0.79 | Fold change (week 11/week 0) in relative species abundance (Symbol BACT_1083, Number 1008): 2.25 | Fold change (week 11/week 0) in relative species abundance (Symbol BACT_1131, Number 942): 0.79 | Fold change (week 11/week 0) in relative species abundance (Symbol BACT_1311, Number 1259): 1.16 | Fold change (week 11/week 0) in relative species abundance (Symbol BACT_1321, Number 1255): 1.16 | Fold change (week 11/week 0) in relative species abundance (Symbol BACT_1322, Number 1396): 1.50 | Fold change (week 11/week 0) in relative species abundance (Symbol BACT_1324, Number 1264): 2.61 | Fold change (week 11/week 0) in relative species abundance (Symbol BACT_1348, Number 1311): 1.15 | Fold change (week 11/week 0) in relative species abundance (Symbol BACT_1378, Number 1375): 2.83 | Fold change (week 11/week 0) in relative species abundance (Symbol BACT_1427, Number 1266): 1.13 | Fold change (week 11/week 0) in relative species abundance (Symbol BACT_1442, Number 1400): 1.75 | Fold change (week 11/week 0) in relative species abundance (Symbol BACT_1457, Number 1337): 0.82 | Fold change (week 11/week 0) in relative species abundance (Symbol BACT_1501, Number 1331): 0.79 | Fold change (week 11/week 0) in relative species abundance (Symbol BACT_1526, Number 1227): 1.58 | Fold change (week 11/week 0) in relative species abundance (Symbol BACT_1555, Number 1469): 0.62 | Fold change (week 11/week 0) in relative species abundance (Symbol BACT_1569, Number 1462): 0.78 | Fold change (week 11/week 0) in relative species abundance (Symbol BACT_1595, Number 1533): 1.13 | Fold change (week 11/week 0) in relative species abundance (Symbol BACT_1656, Number 1503): 1.55 | Fold change (week 11/week 0) in relative species abundance (Symbol BACT_3004, Number 5797): 1.54 | Fold change (week 11/week 0) in relative species abundance (Symbol BACT_3005, Number 5799): 1.56 | Fold change (week 11/week 0) in relative species abundance (Symbol BACT_3007, Number 5798): 0.94 | Fold change (week 11/week 0) in relative species abundance (Symbol BACT_3024, Number 5841): 0.72 | Fold change (week 11/week 0) in relative species abundance (Symbol BACT_3045, Number 5818): 1.19 | Fold change (week 11/week 0) in relative species abundance (Symbol BACT_3058, Number 5816): 1.54 | Fold change (week 11/week 0) in relative species abundance (Symbol BACT_3060, Number 5821): 1.62 | Fold change (week 11/week 0) in relative species abundance (Symbol BACT_3062, Number 5800): 1.49 | Fold change (week 11/week 0) in relative species abundance (Symbol BACT_3085, Number 5842): 1.90 | Fold change (week 11/week 0) in relative species abundance (Symbol BACT_4040, Number 5769): 16.24 | Fold change (week 11/week 0) in relative species abundance (Symbol BACT_4042, Number 5770): 0.28 | Fold change (week 11/week 0) in relative species abundance (Symbol EUKY_222, Number 1954): 1.60 | Fold change (week 11/week 0) in relative species abundance (Symbol V1RL3522, Number 3522): 2.13
